Results from US20260176289A1, “SMALL MOLECULE INHIBITORS OF KRAS PROTEINS” (Merck Sharp & Dohme LLC, priority 2022, published 2026).
Where two headings read alike, the source gives them in different places.

Columns and labels:
KRAS-G12V = KRAS-G12V (Homo sapiens, UniProt P01116, G12V); assay: SOS-catalyzed nucleotide exchange assay (Procedure A, TR-FRET), KRAS-G12V; assay type: biochemical
In short: (§1)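 Biotinylated RAS (KRAS-G12C carries C51S/C80L/C118S; others WT background) preloaded with Bodipy-GDP plus Tb-streptavidin, preincubated with compound 60 min at RT, then human SOS and 3 mM GTP added. Final RAS/SOS: G12C 3 nM/40 nM, 60 min; WT 1 nM/40 nM, 60 min; G12V 1.25 nM/160 nM, 90 min; NRAS 1.25 nM/40 nM, 60 min. TR-FRET 520/495 ratio normalized to DMSO and saturating inhibitor; 10-point curves fit four-parameter logistic.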

AsPC-1 cells = assay: Cellular phospho-ERK assay, AsPC-1 cells (homozygous KRAS-G12D); assay type: cell-based; settings: Homo sapiens, read-out: AsPC1 pERK IC50
In short: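 Cells seeded at 10,000-15,000 per well were incubated overnight, then exposed to compound for 2 hours at 37 °C in a 10-point, 1:3 series topping at 30 μM final. Lysates were assayed by Alpha SureFire Ultra multiplex for p-ERK and total ERK; IC50 came from a 4-parameter logistic fit of their ratio.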

KRAS-G12D = KRAS-G12D (Homo sapiens, UniProt P01116, G12D); assay: SOS-catalyzed nucleotide exchange assay (Procedure A, TR-FRET), KRAS-G12D; assay type: biochemical
KRAS-G12D, sequence (P01116 with tags, fused parts or gaps isoform P01116-2 G12D): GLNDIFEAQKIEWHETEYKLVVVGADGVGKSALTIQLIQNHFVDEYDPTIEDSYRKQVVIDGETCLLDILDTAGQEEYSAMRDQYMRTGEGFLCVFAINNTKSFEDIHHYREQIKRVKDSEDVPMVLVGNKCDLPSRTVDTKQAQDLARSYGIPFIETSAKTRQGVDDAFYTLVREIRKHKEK
In short: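 Signal ratio (520/495 nm, excitation 340 nm) reports Bodipy-GDP retention on biotinylated RAS after SOS-catalyzed exchange with 3 mM GTP. SOS was 40 nM, except 160 nM for G12V. Room-temperature exchange lasted 60 min (90 min for G12V), following a 60 min compound preincubation.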

KRAS-WT = KRAS-WT (Homo sapiens, UniProt P01116); assay: SOS-catalyzed nucleotide exchange assay (Procedure A, TR-FRET), KRAS-WT; assay type: biochemical
KRAS-WT, sequence (P01116 with tags, fused parts or gaps isoform P01116-2): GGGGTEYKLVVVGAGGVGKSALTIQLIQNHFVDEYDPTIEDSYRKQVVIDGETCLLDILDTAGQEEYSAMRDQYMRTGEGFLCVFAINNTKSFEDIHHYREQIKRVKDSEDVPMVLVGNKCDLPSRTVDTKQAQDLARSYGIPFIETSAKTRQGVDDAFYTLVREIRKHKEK
In short: as §1

[1] = nucleotide exchange, read-out: KRAS G12V GNE IC50
[2] = ASPC1, 2 h, 2 hours compound incubation
[3] = nucleotide exchange, read-out: KRAS G12D GNE IC50
[4] = nucleotide exchange, read-out: KRAS WT GNE IC50
[5] = KRAS G12V GNE IC50, nucleotide exchange
[6] = ASPC1, 2 hours compound incubation
[7] = KRAS G12D GNE IC50, nucleotide exchange
[8] = KRAS WT GNE IC50, nucleotide exchange

KRAS-G12V, sequence (P01116 with tags, fused parts or gaps isoform P01116-2 G12V): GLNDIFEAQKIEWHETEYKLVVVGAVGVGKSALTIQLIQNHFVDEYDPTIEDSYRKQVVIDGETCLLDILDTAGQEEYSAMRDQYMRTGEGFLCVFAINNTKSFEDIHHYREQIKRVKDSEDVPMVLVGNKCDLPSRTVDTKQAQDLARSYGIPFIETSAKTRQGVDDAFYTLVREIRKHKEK

Compound: C[C@@]1(O)COCCN(c2nc(OC[C@@]34CCCN3C[C@H](F)C4)nc3sc4c(-c5c6ccccc6cc6[nH]ncc56)nccc4c23)C1 [Ex-170, (6S)-4-(8-(1H-benzo[f]indazol-4-yl)-2-(((2R,7aS)-2-fluorotetrahydro-1H-pyrrolizin-7a(5H)-yl)methoxy)pyrido[4′,3′:4,5]thieno[2,3-d]pyrimidin-4-yl)-6-methyl-1,4-oxazepan-6-ol]
- IC50 (KRAS-G12V; [1]): 33.4 nM
- IC50 (AsPC-1 cells; [2]): 219 nM
- IC50 (KRAS-G12D; [3]): 32.9 nM
- IC50 (KRAS-WT; [4]): 89.6 nM

Compound: C[C@@]1(O)COCCN(c2nc(OC[C@@]34CCCN3C[C@H](F)C4)nc3sc4c(-c5c6cc(F)ccc6cc6[nH]ncc56)nccc4c23)C1 [Ex-172, (6S)-4-(8-(6-fluoro-1H-benzo[f]indazol-4-yl)-2-(((2R,7aS)-2-fluorotetrahydro-1H-pyrrolizin-7a(5H)-yl)-methoxy)pyrido[4′,3′: 4,5]thieno[2,3-d]pyr-imidin-4-yl)-6-methyl-1,4-oxazepam-6-ol]
- IC50 (KRAS-G12V; [5]): 49.2 nM
- IC50 (AsPC-1 cells; [6]): 252 nM
- IC50 (KRAS-G12D; [7]): 34.1 nM
- IC50 (KRAS-WT; [8]): 72.4 nM

Compound: C[C@@]1(O)COCCN(c2nc(OC[C@@]34CCCN3C[C@H](F)C4)nc3sc4c(-c5c6c(cc7[nH]ncc57)CCC6=C(F)F)nccc4c23)C1 [Ex-177, (6S)-4-(8-(5-(difluoro-methylene)-1,5,6,7-tetrahydrocyclopenta [f]indazo1-4-yl)-2-(((2R,7aS)-2-fluoro-tetrahydro-1H-pyr-rolizin-7a(5H)-yl)-methoxy)pyrido[4′,3′: 4,5]thieno[2,3-d]pyr-imidin-4-yl)-6-methyl-1,4-oxazepam-6-ol]
- IC50 (KRAS-G12V; [5]): 61.7 nM
- IC50 (AsPC-1 cells; [6]): 248 nM
- IC50 (KRAS-G12D; [7]): 23.1 nM
- IC50 (KRAS-WT; [8]): 77.4 nM

Compound: Cc1cc2[nH]ncc2c(-c2nccc3c2sc2nc(OC[C@@]45CCCN4C[C@H](F)C5)nc(NCC4COC4)c23)c1C(F)(F)F [Ex-186, 2-(((2R,7aS)-2-fluorotetra-hydro-1H-pyrrolizin-7a(5H)-yl)methoxy)-8-(6-methyl-5-(trifluorometh-yl)-1H-indazol-4-yl)-N-(oxetan-3-ylmethyl)pyrido [4′,3′:4,5]thieno[2,3-d] pyrimidin-4-amine]
- IC50 (KRAS-G12V; [1]): 436 nM
- IC50 (AsPC-1 cells; [2]): 2490 nM
- IC50 (KRAS-G12D; [3]): 409 nM
- IC50 (KRAS-WT; [4]): 980 nM

Compound: Cc1cc2[nH]ncc2c(-c2nccc3c2sc2nc(OC[C@@]45CCCN4C[C@H](F)C5)nc(N4CCCC5(CC(=O)N5)C4)c23)c1C(F)(F)F (stereo partly drawn) [Ex-195, 6-(2-(((2R,7aS)-2-fluoro-tetrahydro-1H-pyrrolizin-7a(5H)-yl)methoxy)-8-(6-methyl-5-(trifluorometh-yl)-1H-indazol-4-yl)pyrido [4′,3′:4,5]thieno[2,3-d]pyrimidin-4-yl)-1,6-diaza-spiro[3.5]nonan-2-one]
- IC50 (KRAS-G12V; [1]): 77.9 nM
- IC50 (AsPC-1 cells; [2]): 7560 nM
- IC50 (KRAS-G12D; [3]): 76.7 nM
- IC50 (KRAS-WT; [4]): 251 nM

Compound: Cc1cc2[nH]ncc2c(-c2nccc3c2sc2nc(OC[C@@]45CCCN4C[C@H](F)C5)nc(N4CCC[C@@]5(CNC(=O)O5)C4)c23)c1C(F)(F)F [Ex-196, (5R)-7-(2-(((2R,7aS)-2-fluorotetrahydro-1H-pyr-rolizin-7a(5)-yl)methoxy)-8-(6-methyl-5-(trifluoro-methyl)-1H-indazol-4-yl)-pyrido[4′,3′:4,5]thieno[2,3-d]pyrimidin-4-yl)-1-oxa-3,7-diazaspiro[4.5]decan-2-one]
- IC50 (KRAS-G12V; [1]): 19.4 nM
- IC50 (AsPC-1 cells; [2]): 1870 nM
- IC50 (KRAS-G12D; [3]): 8.06 nM
- IC50 (KRAS-WT; [4]): 35.8 nM

Compound: Cc1cc2[nH]ncc2c(-c2nccc3c2sc2nc(OC[C@@]45CCCN4C[C@H](F)C5)nc(N4CCC[C@]5(CCO5)C4)c23)c1C(F)(F)F [Ex-200]
- IC50 (KRAS-G12V; [1]): 92.9 nM
- IC50 (AsPC-1 cells; [2]): 613 nM
- IC50 (KRAS-G12D; [3]): 141 nM
- IC50 (KRAS-WT; [4]): 474 nM

Compound: Cc1cc2[nH]ncc2c(-c2nccc3c2sc2nc(OC[C@@]45CCCN4C[C@H](F)C5)nc(N4CCOCC(O)(CF)C4)c23)c1C(F)(F)F (stereo partly drawn) [Ex-202, 6-(fluoromethyl)-4-(2-(((2R,7aS)-2-fluorotetra-hydro-1H-pyrrolizin-7a(5H)-yl)methoxy)-8-(6-methyl-5-(trifluoro-methyl)-1H-indazol-4-yl)-pyrido[4′,3′:4,5]thieno [2,3-d]pyrimidin-4-yl)-1,4-oxazepan-6-ol]
- IC50 (KRAS-G12V; [1]): 229 nM
- IC50 (AsPC-1 cells; [2]): 701 nM
- IC50 (KRAS-G12D; [3]): 97.5 nM
- IC50 (KRAS-WT; [4]): 292 nM

Compound: Cc1cc2[nH]ncc2c(-c2nccc3c2sc2nc(O[C@@H](C)[C@@H]4CCCN4C)nc(N4CCOC[C@@](C)(O)C4)c23)c1C(F)(F)F [Ex-204, (6S)-6-methyl-4-(8-(6-methyl-5-(trifluoromethyl)-1H-indazol-4-yl)-2-((S)-1-((S)-1-methylpyrrolidin-2-yl)ethoxy)pyrido[4′,3′:4,5]thieno[2,3-d]pyrimidin-4-yl)-1,4-oxazepan-6-ol]
- IC50 (KRAS-G12V; [1]): 239 nM
- IC50 (AsPC-1 cells; [2]): 2310 nM
- IC50 (KRAS-G12D; [3]): 339 nM
- IC50 (KRAS-WT; [4]): 936 nM

Compound: CN1CC[C@H]2C(Oc3nc(N4CCOC[C@@](C)(O)C4)c4c(n3)sc3c(-c5c(C6CC6)c(Cl)cc6[nH]ncc56)nccc34)C[C@H]21 (stereo partly drawn) [Ex-216, (6S)-4-(8-(6-chloro-5-cyclopropyl-1H-indazol-4-yl)-2-(((1R,5R,6S)-2-methyl-2-azabicyclo [3.2.0]heptan-6-yl)-oxy)pyrido[4′,3′: 4,5]thieno[2,3-d]pyrimidin-4-yl)-6-methyl-1,4-oxaze-pam-6-ol]
- IC50 (KRAS-G12V; [1]): 864 nM
- IC50 (AsPC-1 cells; [2]): 2900 nM
- IC50 (KRAS-G12D; [3]): 464 nM
- IC50 (KRAS-WT; [4]): 1590 nM

Compound: C=C1CN2C[C@@H](F)C[C@@]2(COc2nc(N3CCOC[C@@](C)(O)C3)c3c(n2)sc2c(-c4c(C5CC5)c(Cl)cc5[nH]ncc45)nccc23)C1 [Ex-222, (6S)-4-(8-(6-chloro-5-cyclopropyl-1H-indazol-4-yl)-2-(((2S,7aR)-2-fluoro-6-methylenetetra-hydro-1H-pyrrol-izin-7a(5H)-yl)methoxy)pyrido [4′,3′:4,5]thieno[2,3-d]pyrimidin-4-yl)-6-methyl-1,4-oxaze-pan-6-ol]
- IC50 (KRAS-G12V; [1]): 46 nM
- IC50 (AsPC-1 cells; [2]): 246 nM
- IC50 (KRAS-G12D; [3]): 29.3 nM
- IC50 (KRAS-WT; [4]): 104 nM

Compound: C=C1CN2C[C@@H](OC)C[C@@]2(COc2nc(N3CCOC[C@@](C)(O)C3)c3c(n2)sc2c(-c4c(C5CC5)c(Cl)cc5[nH]ncc45)nccc23)C1 [Ex-227, (6S)-4-(8-(6-chloro-5-cyclopropyl-1H-indazol-4-yl)-2-(((25,7aR)-2-meth-oxy-6-methylene-tetrahydro-1H-pyrrolizin-7a(5H)-yl)methoxy)pyrido [4′,3′:4,5]thieno[2,3-d]pyrimidin-4-yl)-6-methyl-1,4-oxaze-pan-6-ol]
- IC50 (KRAS-G12V; [1]): 21.9 nM
- IC50 (AsPC-1 cells; [2]): 175 nM
- IC50 (KRAS-G12D; [3]): 6.56 nM
- IC50 (KRAS-WT; [4]): 18.5 nM

Compound: C[C@@]1(O)COCCN(c2nc(OC[C@]3(CN4CCC5(CC4)CC5)CC3(F)F)nc3sc4c(-c5c(C6(F)CC6)c(Cl)cc6[nH]ncc56)nccc4c23)C1 [Ex-233, (6S)-4-(2-(((R)-1-((6-azaspiro[2.5]octan-6-yl)methyl)-2,2-difluorocyclopropyl)methoxy)-8-(6-chloro-5-(1-fluorocyclopropyl)-1H-indazol-4-yl)pyrido[4′,3′:4,5]thieno[2,3-d]pyrimidin-4-yl)-6-methyl-1,4-oxazepan-6-ol]
- IC50 (KRAS-G12V; [1]): 25.9 nM
- IC50 (AsPC-1 cells; [2]): 498 nM
- IC50 (KRAS-G12D; [3]): 10.1 nM
- IC50 (KRAS-WT; [4]): 153 nM

Compound: CC1(C)C2CN(C[C@@]3(COc4nc(N5CCOC[C@@](C)(O)C5)c5c(n4)sc4c(-c6c(C7(F)CC7)c(Cl)cc7[nH]ncc67)nccc45)CC3(F)F)CC21 (stereo partly drawn) [Ex-234, (6S)-4-(8-(6-chloro-5-(1-fluorocyclopropyl)-1H-indazol-4-yl)-2-(((1R)-1-((6,6-dimethyl-3-azabicyclo[3.1.0]hexan-3-yl)methyl)-2,2-difluorocyclopropyl)methoxy)pyrido[4′,3′:4,5]thieno[2,3-d]pyrimidin-4-yl)-6-methyl-1,4-oxazepan-6-ol]
- IC50 (KRAS-G12V; [1]): 107 nM
- IC50 (AsPC-1 cells; [2]): 1520 nM
- IC50 (KRAS-G12D; [3]): 27.4 nM
- IC50 (KRAS-WT; [4]): 389 nM

Compound: C[C@@]1(O)COCCN(c2nc(OC[C@]3(CN4C[C@H]5COC[C@H]5C4)CC3(F)F)nc3sc4c(-c5c(C6(F)CC6)c(Cl)cc6[nH]ncc56)nccc4c23)C1 [Ex-235, (6S)-4-(8-(6-chloro-5-(1-fluorocyclopropyl)-1H-indazol-4-yl)-2-(((R)-2,2-difluoro-1-(((3aR,6aS)-tetrahydro-1H-furo[3,4-c]pyrrol-5(3H)-yl)methyl)cyclopropyl)metho-xy)pyrido[4′,3′:4,5]thieno[2,3-d]pyrimidin-4-yl)-6-methyl-1,4-oxazepan-6-ol]
- IC50 (KRAS-G12V; [1]): 19.4 nM
- IC50 (AsPC-1 cells; [2]): 206 nM
- IC50 (KRAS-G12D; [3]): 3.86 nM
- IC50 (KRAS-WT; [4]): 31.6 nM

Compound: C[C@@]1(O)COCCN(c2nc(OC[C@]3(CN4C[C@@H]5C[C@H]4CO5)CC3(F)F)nc3sc4c(-c5c(C6(F)CC6)c(Cl)cc6[nH]ncc56)nccc4c23)C1 [Ex-236, (6S)-4-(2-(((R)-1-(((15,4S)-2-oxa-5-azabicyclo[2.2.1]heptan-5-yl)methyl)-2,2-difluorocyclopropyl)methoxy)-8-(6-chloro-5-(1-fluorocyclopropyl)-1H-indazol-4-yl)pyrido[4′,3′:4,5]thieno[2,3-d]pyrimidin-4-yl)-6-methyl-1,4-oxazepan-6-ol]
- IC50 (KRAS-G12V; [1]): 34.8 nM
- IC50 (AsPC-1 cells; [2]): 242 nM
- IC50 (KRAS-G12D; [3]): 16.2 nM
- IC50 (KRAS-WT; [4]): 121 nM
